Some results are limits rather than exact numbers.

This test concerns RKO p21 uninduced (proliferating) colon adenocarcinoma cells. The test can be described thus: Alamar Blue cell viability assay, RKO p21 uninduced (proliferating). The test is classed as cell-based. Conditions: Homo sapiens, Table B3, anti-proliferative/cytotoxic activity, 72 hours, read-out: −log EC50 RKO p21 uninduced (proliferating) (converted). The method in brief: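 RKO p21 or p27 subclones grown without Ponasterone A, i.e. proliferating, exposed 24 h after seeding to semi-log compound dilutions in DMEM/10% FCS (1% DMSO controls) for 72 h at 37° C. Alamar Blue fluorescence (544/590 nm) read relative to untreated cells; EC50 from dose-response curves, given as −log EC50 (mol/l).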
(Alamar Blue is a resazurin reagent that responds to reducing activity.)
In the case of `CC(C)CNCCCN1C(=O)N2[C@H](c3cccc(O)c3)c3[nH]c4cc(F)c(Cl)cc4c3C[C@@]2(C)C1=O` (racemic) [Example 459, (3aSR,10RS)-6-Chloro-7-fluoro-10-(3-hydroxy-phenyl)-2-(3-isobutylamino-propyl)-3a-methyl-3a,4,9,10-tetrahydro-2,9,10a-triaza-cyclopenta[b]fluorene-1,3-dione], the 50% effective concentration (EC50) is 39.8 to 251 nM.
The result for `C[C@@]12Cc3c([nH]c4ccc(Br)cc34)[C@@H](c3cccc(O)c3)N1C(=O)N(CCN1CC=CCC1)C2=O` (racemic) [Example 395, (3aSR,10RS)-6-Bromo-2-[2-(3,6-dihydro-2H-pyridin-1-yl)-ethyl]-10-(3-hydroxy-phenyl)-3a-methyl-3a,4,9,10-tetrahydro-2,9,10a-triaza-cyclopenta[b]fluorene-1,3-dione] reads 39.8 to 251 nM.
`CCOc1ccc2[nH]c3c(c2c1)C[C@@]1(C)C(=O)N(CCNCC(C)C)C(=O)N1[C@@H]3c1cccc(O)c1` (racemic) [Example 153, (3aSR,10RS)-6-Ethoxy-10-(3-hydroxy-phenyl)-2-(2-isobutylamino-ethyl)-3a-methyl-3a,4,9,10-tetrahydro-2,9,10a-triaza-cyclopenta[b]fluorene-1,3-dione]: the EC50 is not above 39.8 nM.
For `CN(CCO)CCN1C(=O)N2[C@H](c3cccc(O)c3)c3[nH]c4ccc(Br)cc4c3C[C@@]2(C)C1=O` (racemic) [Example 384, (3aSR,10RS)-6-Bromo-2-{2-[(2-hydroxy-ethyl)-methyl-amino]-ethyl}-10-(3-hydroxy-phenyl)-3a-methyl-3a,4,9,10-tetrahydro-2,9,10a-triaza-cyclopenta[b]fluorene-1,3-dione], the EC50 is not above 39.8 nM.
The value for `C[C@@]12Cc3c([nH]c4ccc(OC(F)F)cc34)[C@@H](c3cccc(O)c3)N1C(=O)N(CCN1CC=CCC1)C2=O` (racemic) [Example 281, (3aSR,10RS)-6-(1,1-Difluoro-methoxy)-2-[2-(3,6-dihydro-2H-pyridin-1-yl)-ethyl]-10-(3-hydroxy-phenyl)-3a-methyl-3a,4,9,10-tetrahydro-2,9,10a-triaza-cyclopenta[b]fluorene-1,3-dione] was 39.8 to 251 nM; that for `CN1CCN(CCCN2C(=O)N3[C@H](c4cccc(O)c4)c4[nH]c5ccc(Br)cc5c4C[C@@]3(C)C2=O)CC1` (racemic) [Example 375, (3aSR,10RS)-6-Bromo-10-(3-hydroxy-phenyl)-3a-methyl-2-[3-(4-methyl-piperazin-1-yl)-propyl]-3a,4,9,10-tetrahydro-2,9,10a-triaza-cyclopenta[b]fluorene-1,3-dione] was not above 39.8 nM.
The value for `C[C@@]12Cc3c([nH]c4ccc(Br)cc34)[C@@H](c3cccc(O)c3)N1C(=O)N(CCNCC1CC1)C2=O` (racemic) [Example 376, (3aSR,10RS)-6-Bromo-2-[2-(cyclopropylmethyl-amino)-ethyl]-10-(3-hydroxy-phenyl)-3a-methyl-3a,4,9,10-tetrahydro-2,9,10a-triaza-cyclopenta[b]fluorene-1,3-dione] was not above 39.8 nM.
The result for `CCNCCN1C(=O)N2[C@H](c3cccc(O)c3)c3[nH]c4ccc(OCC)cc4c3C[C@@]2(C)C1=O` (racemic) [Example 296, (3aSR,10RS)-6-Ethoxy-2-(2-ethylamino-ethyl)-10-(3-hydroxy-phenyl)-3a-methyl-3a,4,9,10-tetrahydro-2,9,10a-triaza-cyclopenta[b]fluorene-1,3-dione] reads not above 39.8 nM; that for `COc1cc2c3c([nH]c2cc1F)[C@@H](c1cccc(O)c1)N1C(=O)N(CCN(C)C)C(=O)[C@]1(C)C3` (racemic) [Example 255, (3aSR,10RS)-2-(2-Dimethylamino-ethyl)-7-fluoro-10-(3-hydroxy-phenyl)-6-methoxy-3a-methyl-3a,4,9,10-tetrahydro-2,9,10a-triaza-cyclopenta[b]fluorene-1,3-dione], 39.8 to 251 nM.
Consider `C=CCNCCCN1C(=O)N2[C@H](c3cccc(O)c3)c3[nH]c4ccc(OC(F)F)cc4c3C[C@@]2(C)C1=O` (racemic) [Example 206, (3aSR,10RS)-2-(3-Allylamino-propyl)-6-(1,1-difluoro-methoxy)-10-(3-hydroxy-phenyl)-3a-methyl-3a,4,9,10-tetrahydro-2,9,10a-triaza-cyclopenta[b]fluorene-1,3-dione], for which the concentration for a half-maximal effect (EC50) is 39.8 to 251 nM.
The value for `CC(C)(C)NCCCN1C(=O)N2[C@H](c3cccc(O)c3)c3[nH]c4cc(F)c(Cl)cc4c3C[C@@]2(C)C1=O` (racemic) [Example 464, (3aSR,10RS)-2-(3-tert-Butylamino-propyl)-6-chloro-7-fluoro-10-(3-hydroxy-phenyl)-3a-methyl-3a,4,9,10-tetrahydro-2,9,10a-triaza-cyclopenta[b]fluorene-1,3-dione] was 39.8 to 251 nM; that for `COc1ccc2[nH]c3c(c2c1)C[C@@]1(C)C(=O)N(CCCN2CCN(C)CC2)C(=O)N1[C@@H]3c1cccc(O)c1` (racemic) [Example 150, (3aSR,10RS)-10-(3-Hydroxy-phenyl)-6-methoxy-3a-methyl-2-[3-(4-methyl-piperazin-1-yl)-propyl]-3a,4,9,10-tetrahydro-2,9,10a-triaza-cyclopenta[b]fluorene-1,3-dione] was not above 39.8 nM; that for `COc1ccc2[nH]c3c(c2c1)C[C@@]1(C)C(=O)N(CCCN(C)CCO)C(=O)N1[C@@H]3c1cccc(O)c1` [Example 542, (3aS,10R)-2-{3-[(2-Hydroxy-ethyl)-methyl-amino]-propyl}-10-(3-hydroxy-phenyl)-6-methoxy-3a-methyl-3a,4,9,10-tetrahydro-2,9,10a-triaza-cyclopenta[b]fluorene-1,3-dione] was not above 39.8 nM.
The result for `COCCNCCN1C(=O)N2[C@H](c3cccc(O)c3)c3[nH]c4ccc(Br)cc4c3C[C@@]2(C)C1=O` (racemic) [Example 377, (3aSR,10RS)-6-Bromo-10-(3-hydroxy-phenyl)-2-[2-(2-methoxy-ethylamino)-ethyl]-3a-methyl-3a,4,9,10-tetrahydro-2,9,10a-triaza-cyclopenta[b]fluorene-1,3-dione] reads not above 39.8 nM; that for `CCOc1ccc2[nH]c3c(c2c1)C[C@@]1(C)C(=O)N(CCN2CC=CCC2)C(=O)N1[C@@H]3c1cccc(O)c1` (racemic) [Example 165, (3aSR,10RS)-2-[2-(3,6-Dihydro-2H-pyridin-1-yl)-ethyl]-6-ethoxy-10-(3-hydroxy-phenyl)-3a-methyl-3a,4,9,10-tetrahydro-2,9,10a-triaza-cyclopenta[b]fluorene-1,3-dione], 39.8 to 251 nM; that for `CCN(CC)CCN1C(=O)N2[C@H](c3cccc(O)c3)c3[nH]c4cc(F)c(Cl)cc4c3C[C@@]2(C)C1=O` (racemic) [Example 336, (3aSR,10RS)-6-Chloro-2-(2-diethylamino-ethyl)-7-fluoro-10-(3-hydroyx-phenyl)-3a-methyl-3a,4,9,10-tetrahydro-2,9,10a-triaza-cyclopenta[b]fluorene-1,3-dione], 39.8 to 251 nM.
The result for `C[C@@]12Cc3c([nH]c4cc(F)c(Cl)cc34)[C@@H](c3cccc(O)c3)N1C(=O)N(CCCN1CCCCCC1)C2=O` (racemic) [Example 483, (3aSR,10RS)-2-(3-Azepan-1-yl-propyl)-6-chloro-7-fluoro-10-(3-hydroyx-phenyl)-3a-methyl-3a,4,9,10-tetrahydro-2,9,10a-triaza-cyclopenta[b]fluorene-1,3-dione] reads 39.8 to 251 nM.

Broadly, the EC50 is the concentration giving half of the maximal effect.

For the origin of these results see patent US8530493B2, “Indolopyridines as Eg5 kinesin modulators” (4SC AG, priority 2006, dated 2013).
